Test results as given in patent US9795675B2, “Light-activatable polymeric nanoparticles” (CNC—CENTRO DE NEUROCIÊNCIAS E BIOLOGIA CELULAR, priority 2013, dated 2017).

What was measured:
U937 cells [1] = experiment: NP uptake in the presence of endocytosis inhibitors (FACS); type: cell-based, human; conditions: dynasor 80 μM; TRITC-labelled NPs 5 μg/mL
Method: (§1) Uptake mechanisms analysis. For determining the uptake mechanism(s), we first perform NP uptake assays in the presence of endocytosis inhibitors. U937 cells were cultured on 24 well plates (1×10^5 cells/well) and inhibited by one of the following chemicals during 30 min before adding a suspension of TRITC-labelled NPs (5 μg/mL): dynasor (80 μM), cytochalasin D (10 μM), nocodazole (50 uM), filipin III (100 μM) and polyinosinic acid (100 μg/mL). The inhibitor concentrations were based in values reported in literature and further validated by us to have no cytotoxic effect over the period of the assay (6 h), as confirmed by ATP assay. The incubation of the cells with NPs for different times was performed in the presence of the inhibitor. As controls, we used cells without NPs and cells incubated with NPs without inhibitor. At the end of each time point, cells were centrifuged at 1300 rpm, 2° C. for 5 min with PBS, washed one time with cold trypan blue solution (200 μL; 600 μg/mL), re-washed 3 times with cold PBS and then resuspended in PBS containing 2.5% FBS (500 μL) for FACS analysis. A total of 10,000 events were obtained per measurement. To validate the inhibitory activity of dynasor we performed uptake studies of FITC-labeled transferrin, known to selectively enter cells via clatherin-mediated endocytosis. […] Cells were then evaluated as before.

U937 cells [2] = experiment: Uptake of FITC-labeled transferrin (validation of dynasor); type: cell-based, human; conditions: dynasor 80 μM, 30 min pre-incubation
Method: as §1

K562, NB4 and U937 cells = experiment: Retinoic acid uptake assay ([3H]RA, scintillation counting); type: cell-based, human
Method: Experiments were initiated by the addition of medium containing [^3H]RA (1 μM and 10 μM) and [^3H]RA-NPs (1 μg/mL and 10 μg/mL) to cultures (60,000 cells/condition, 24-well plate, 1 mL) of K562, NB4 and U937 cells. After experimental incubations with medium containing [^3H]RA and [^3H]RA-NPs for 4, 24 and 72 hours, cells were collected to eppendorfs, washed with PBS by centrifugation (1500 rpm, 5 min, 2 times) to remove non-internalized [^3H]RA and then resuspend in 100 μL of lysis buffer (see above) and kept on ice until scintillation counting procedure.
The titrium content of the samples was assayed by adding 100 μL aliquot of the samples to 1 mL liquid scintillation fluid (Packard Ultima Gold) and counted in a TriCarb 2900 TR Scintillation analyzer (Perkin Elmer). All conditions were performed in triplicate.

patients = conditions: cited from earlier work

In the case of O=C(N/N=C/c1ccc(O)c(O)c1)c1cc2ccccc2cc1O [Dynasore], the “reduction of the uptake of NPs compared to control cells” value (U937 cells [1]) is reported as 90% and the “internalisation of FITC-labeled transferrin” value (U937 cells [2]) is reported as “inhibits the internalisation of transferrin”.

For CC1=C(/C=C/C(C)=C/C=C/C(C)=C/C(=O)O)C(C)(C)CCC1 [RA, retinoic acid], the “time of peak RA uptake” value (K562, NB4 and U937 cells) is given as 24 h, the “patients receiving RA who develop serious complications including the differentiation syndrome” value (patients; human, in vivo) is given as “approximately 25%” and the “patients in whom the dose of RA leads to hyperleukocytosis and respiratory distress syndrome” value (patients; up to) is given as 20-30%.

In the case of CC1=C(/C=C/C(C)=C/C=C/C(C)=C/C(=O)O)C(C)(C)CCC1 [[^3H]RA], the “uptake yield of [^3H]RA” value (K562, NB4 and U937 cells; [^3H]RA 1 and 10 uM or [^3H]RA-NPs 1 and 10 ug/mL, for 4 hours, measured after 24 and 72 hours) is reported as “below 2%”.
